Values quoted from earlier work as cited in patent US6468993B1, “Method for reducing development of osteoporosis” (BioNumerik Pharmaceuticals, Inc., priority 1999, dated 2002).

How the values were obtained:
[1] = system: mice; settings: intravenously, doses higher than 3750 mg/kg
[2] = system: dogs; settings: intravenously, doses higher than 3750 mg/kg
[3] = system: humans; settings: doses exceeding 40 g/m^2

Compound	accepted oral LD50	adverse effects after administration [1]	adverse effects after administration [2]	adverse effects after administration [3]
[Cl-].[Na+] [common table salt]	3750 mg/kg	–	–	–
O=S(=O)([O-])CCSSCCS(=O)(=O)[O-].[Na+].[Na+] [dimesna, disodium 2,2′-dithiobis ethane sulfonate]	–	no adverse effects	no adverse effects	no adverse effects
